# Molecular target: T1, androgen receptor (Homo sapiens, UniProt P10275)
# T1 sequence (P10275 1-920 Q868H): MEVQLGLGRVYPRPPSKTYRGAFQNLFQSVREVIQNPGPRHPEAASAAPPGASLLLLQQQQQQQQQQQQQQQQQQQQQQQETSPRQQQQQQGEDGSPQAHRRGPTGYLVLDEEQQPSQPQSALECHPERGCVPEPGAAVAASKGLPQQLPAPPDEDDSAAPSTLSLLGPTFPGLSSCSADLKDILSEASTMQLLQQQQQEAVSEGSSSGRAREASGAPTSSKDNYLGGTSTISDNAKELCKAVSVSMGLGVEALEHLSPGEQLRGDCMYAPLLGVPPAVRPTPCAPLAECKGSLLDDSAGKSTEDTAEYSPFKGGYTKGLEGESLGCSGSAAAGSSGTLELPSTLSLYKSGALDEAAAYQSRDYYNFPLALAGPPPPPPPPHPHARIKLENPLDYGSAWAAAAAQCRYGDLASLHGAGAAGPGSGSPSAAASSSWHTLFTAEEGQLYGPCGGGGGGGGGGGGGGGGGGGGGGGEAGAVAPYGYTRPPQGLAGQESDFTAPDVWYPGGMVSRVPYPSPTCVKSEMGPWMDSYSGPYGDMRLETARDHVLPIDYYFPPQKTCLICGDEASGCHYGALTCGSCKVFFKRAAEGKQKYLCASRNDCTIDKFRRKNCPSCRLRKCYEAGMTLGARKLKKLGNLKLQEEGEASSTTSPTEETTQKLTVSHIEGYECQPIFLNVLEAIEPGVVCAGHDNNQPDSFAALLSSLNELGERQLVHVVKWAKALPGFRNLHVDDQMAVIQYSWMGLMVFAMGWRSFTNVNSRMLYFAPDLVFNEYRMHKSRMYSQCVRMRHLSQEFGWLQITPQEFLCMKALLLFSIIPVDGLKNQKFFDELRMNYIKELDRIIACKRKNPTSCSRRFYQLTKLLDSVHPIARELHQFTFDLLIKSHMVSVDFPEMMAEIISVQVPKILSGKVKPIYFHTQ
# Experiment: AR Antagonist Cell Assay (MMTV-luciferase reporter, DHT-stimulated)
# Assay type: cell-based
# Settings: MDA-MB453-MMTV clone 54-19 cells, inhibition of induction by 100 pM DHT, 17 hr
# Protocol: The compounds ability to antagonize the effects of androgen on the androgen receptor were determined in the protocol described immediately below.
# Experimental Procedure for AR Antagonist Cell Assay
# Cell line: MDA-MB453-MMTV clone 54-19. This cell line is a stable transfected cell line with MDA-MB453 cell background (human breast tumor cell expressing high level of androgen receptor). A MMTV minimal promoter containing ARE was first cloned in front of a firefly luciferase reporter gene. Then the cascade was cloned into transfection vector pUV120puro. Electroporation method was used for transfecting MDA-MB-453 cell. Puromycin resistant stable cell line was selected.
# Cell Culture Media and Reagents:
# Culture medium: DMEM (high glucose, Gibco cat #: 11960-044), 10% FBS, and 1% L-glutamine
# Plating medium: DMEM (phenol red free), 10% charcoal treated HyClone serum, 1% L-glutamine
# Assay medium: DMEM (phenol red free), 1% charcoal treated HyClone serum, 1% L-glutamine, and 1% penicillin/streptomycin
# 3×luciferase buffer: 2% beta-mercaptoethanol, 0.6% ATP, 0.0135% luciferine in cell lysis buffer
# • 1. Cells are maintained in culture medium, splitting cells when they reach 80–90% confluence • 2. To test compounds, 10,000 cells/well are plated to opaque 96 cell culture plate in 100 ul/well plating medium, culture for overnight at 37° C. in cell culture incubator • 3. Carefully remove plating medium, then add 80 ul/well of pre-warmed assay medium, add 10 ul/well testing compound (final concentration at 10 uM or 1 uM), incubate at 37° C. for 30 minutes • 4. Add 10 ul/well freshly prepared DHT (final concentration at 100 pM) to each well, incubate at 37° C. for 17 hr (overnight) • 5. Add 50 ul/well 3×luciferase buffer, incubate at room temperature for 5 minutes, then count on Luminometer
# The fold induction over background by 100 pM DHT in the absence of testing compounds is standardized as 100% and experimental result is expressed as percentage of inhibition by testing compounds.
row,Compound,IC50
1,"COc1cc2c(cc1OC)CN(S(=O)(=O)c1ccc(Cc3ccc4[nH]c(=O)cc(C(F)(F)F)c4c3)cc1)CC2 [Example 5, 6-[4-(6,7-Dimethoxy-3,4-dihydro-1H-isoquinoline-2-sulfonyl)benzyl]-4-trifluoromethyl-1H-quinolin-2-one]",> 10 µM
2,"CC1CCCCN1S(=O)(=O)c1ccc(Cc2ccc3[nH]c(=O)cc(C(F)(F)F)c3c2)cc1 (stereo not shown) [Example 22, 6-[4-(2-Methylpiperidine-1-sulfonyl)benzyl]-4-trifluoromethyl-1H-quinolin-2-one]",> 10 µM
3,"O=c1cc(C(F)(F)F)c2cc(Cc3ccc(S(=O)(=O)N4CCCC5CCCCC54)cc3)ccc2[nH]1 (stereo not shown) [Example 19, 6-[4-(Octahydroquinoline-1-sulfonyl)benzyl]-4-trifluoromethyl-1H-quinolin-2-one]",> 10 µM
4,"O=C(CN1CCN(S(=O)(=O)c2ccc(Cc3ccc4[nH]c(=O)cc(C(F)(F)F)c4c3)cc2)CC1)N1CCCC1 [Example 13, 6-{4-[4-(2-Oxo-2-pyrrolidin-1-ylethyl)piperazine-1-sulfonyl]benzyl}-4-trifluoromethyl-1H-quinolin-2-one]",> 10 µM
5,"CC1CCN(S(=O)(=O)c2ccc(Cc3ccc4oc(=O)cc(C(F)(F)F)c4c3)cc2)CC1 [Example 49, 6-[4-(4-Methylpiperidine-1-sulfonyl)benzyl]-4-trifluoromethylchromen-2-one]",> 10 µM
6,"O=c1cc(C(F)(F)F)c2cc(Cc3ccc(S(=O)(=O)N4CCC(O)CC4)cc3)ccc2o1 [Example 56, 6-[4-(4-Hydroxypiperidine-1-sulfonyl)benzyl]-4-trifluoromethylchromen-2-one]",> 10 µM
7,"CCN1CCN(S(=O)(=O)c2ccc(Cc3ccc4[nH]c(=O)cc(C(F)(F)F)c4c3)cc2)CC1 [Example 8, 6-[4-(4-Ethylpiperazine-1-sulfonyl)benzyl]-4-trifluoromethyl-1H-quinolin-2-one]",> 10 µM
8,"O=c1cc(C(F)(F)F)c2cc(Cc3ccc(S(=O)(=O)N4CCCC4)cc3)ccc2[nH]1 [Example 20, 6-[4-(Pyrrolidine-1-sulfonyl)benzyl]-4-trifluoromethyl-1H-quinolin-2-one]",> 10 µM
9,"O=C(CN1CCN(S(=O)(=O)c2ccc(Cc3ccc4oc(=O)cc(C(F)(F)F)c4c3)cc2)CC1)N1CCCC1 [Example 47, 6-{4-[4-(2-Oxo-2-pyrrolidin-1-ylethyl)piperazine-1-sulfonyl]benzyl}-4-trifluoromethylchromen-2-one]",> 10 µM
10,"O=c1cc(C(F)(F)F)c2cc(Cc3ccc(S(=O)(=O)N4CCCCC4CCO)cc3)ccc2o1 (stereo not shown) [Example 51, 6-{4-[2-(2-Hydroxyethyl)piperidine-1-sulfonyl]benzyl}-4-trifluoromethylchromen-2-one]",> 10 µM
11,"O=c1cc(C(F)(F)F)c2cc(Cc3ccc(S(=O)(=O)N4CCN(CCCN5CCCCC5)CC4)cc3)ccc2o1 [Example 38, 6-{4-[4-(3-Piperidin-1-ylpropyl)piperazine-1-sulfonyl]benzyl}-4-trifluoromethylchromen-2-one]",> 10 µM
12,"O=c1cc(C(F)(F)F)c2cc(Cc3ccc(S(=O)(=O)N4CCCC(O)C4)cc3)ccc2o1 (stereo not shown) [Example 27, 6-[4-(3-Hydroxypiperidine-1-sulfonyl)benzyl]-4-trifluoromethylchromen-2-one]",> 10 µM
13,"COc1ccc(N2CCN(S(=O)(=O)c3ccc(Cc4ccc5[nH]c(=O)cc(C(F)(F)F)c5c4)cc3)CC2C)cc1 (stereo not shown) [Example 3, 6-{4-[4-(4-Methoxyphenyl)-3-methylpiperazine-1-sulfonyl]benzyl}-4-trifluoromethyl-1H-quinolin-2-one]",> 10 µM

# Next, values leading:
row,IC50,Compound
1,> 10 µM,CCOC(=O)C1CCN(S(=O)(=O)c2ccc(Cc3ccc4[nH]c(=O)cc(C(F)(F)F)c4c3)cc2)CC1 [Example 4]
2,6.8 µM,"O=c1cc(C(F)(F)F)c2cc(Cc3ccc(S(=O)(=O)N4CCCCCC4)cc3)ccc2o1 [Example 57, 6-[4-(Azepane-1-sulfonyl)benzyl]-4-trifluoromethylchromen-2-one]"
3,8.2 µM,"O=c1cc(C(F)(F)F)c2cc(Cc3ccc(S(=O)(=O)N4CCN(CCCO)CC4)cc3)ccc2o1 [Example 31, 6-{4-[4-(3-Hydroxypropyl)piperazine-1-sulfonyl]benzyl}-4-trifluoromethylchromen-2-one]"
4,9.8 µM,"O=c1cc(C(F)(F)F)c2cc(Cc3ccc(S(=O)(=O)N4CCCCC4CO)cc3)ccc2[nH]1 (stereo not shown) [Example 7, 6-[4-(2-Hydroxymethylpiperidine-1-sulfonyl)benzyl]-4-trifluoromethyl-1H-quinolin-2-one]"
5,5.3 µM,"O=c1cc(C(F)(F)F)c2cc(Cc3ccc(S(=O)(=O)N4CCCCC4CO)cc3)ccc2o1 (stereo not shown) [Example 37, 6-[4-(2-Hydroxymethyl-piperidine-1-sulfonyl)benzyl]-4-trifluoromethylchromen-2-one]"
6,6.8 µM,"O=c1cc(C(F)(F)F)c2cc(Cc3ccc(S(=O)(=O)N4CCc5ccccc5C4)cc3)ccc2[nH]1 [Example 2, 6-[4-(3,4-Dihydro-1H-isoquinoline-2-sulfonyl)benzyl]-4-trifluoromethyl-1H-quinolin-2-one]"
7,8.9 µM,"O=c1cc(C(F)(F)F)c2cc(Cc3ccc(S(=O)(=O)N4CCCCC4c4cccnc4)cc3)ccc2o1 (stereo not shown) [Example 48, 6-[4-(3,4,5,6-Tetrahydro-2H-[2,3′]bipyridinyl-1-sulfonyl)benzyl]-4-trifluoromethylchromen-2-one]"
8,5.4 µM,"COC(=O)[C@@H]1CCCN1S(=O)(=O)c1ccc(Cc2ccc3[nH]c(=O)cc(C(F)(F)F)c3c2)cc1 [Example 9, 1-[4-(2-Oxo-4-trifluoromethyl-1,2-dihydroquinolin-6-ylmethyl)benzenesulfonyl]-pyrrolidine-2-carboxylicacid methyl ester]"
9,5.9 µM,"O=c1cc(C(F)(F)F)c2cc(Cc3ccc(S(=O)(=O)N4CCCc5ccccc54)cc3)ccc2o1 [Example 65, 6-[4-(3,4-Dihydro-2H-sulfonyl)benzyl]-4-trifluoromethylchromen-2-one]"
10,9.3 µM,"COc1ccc(N2CCN(S(=O)(=O)c3ccc(Cc4ccc5oc(=O)cc(C(F)(F)F)c5c4)cc3)CC2C)cc1 (stereo not shown) [Example 32, 6-{4-[4-(4-Methoxyphenyl)-3-methylpiperazine-1-sulfonyl]benzyl}-4-trifluoromethylchromen-2-one]"
11,9.8 µM,"CC1CCCCN1S(=O)(=O)c1ccc(Cc2ccc3oc(=O)cc(C(F)(F)F)c3c2)cc1 (stereo not shown) [Example 58, 6-[4-(2-Methylpiperidine-1-sulfonyl)benzyl]-4-trifluoromethylchromen-2-one]"
12,8 µM,"O=c1cc(C(F)(F)F)c2cc(Cc3ccc(S(=O)(=O)N4CCCC4CO)cc3)ccc2[nH]1 (stereo not shown) [Example 18, 6-[4-(2-Hydroxymethylpyrrolidine-1-sulfonyl)benzyl]-4-trifluoromethyl-1H-quinolin-2-one]"
13,2.9 µM,"O=c1cc(C(F)(F)F)c2cc(Cc3ccc(S(=O)(=O)N4CCC4)cc3)ccc2[nH]1 [Example 25, 6-[4-(Azetidine-1-sulfonyl)benzyl]-4-trifluoromethyl-1H-quinolin-2-one]"
14,0.52 µM,"CC1CN(S(=O)(=O)c2ccc(Cc3ccc4oc(=O)cc(C(F)(F)F)c4c3)cc2)CC(C)O1 (stereo not shown) [Example 60, 6-[4-(2,6-Dimethylmorpholine-4-sulfonyl)benzyl]-4-trifluoromethylchromen-2-one]"
15,9.4 µM,"COCCN1CCN(S(=O)(=O)c2ccc(Cc3ccc4oc(=O)cc(C(F)(F)F)c4c3)cc2)CC1 [Example 39, 6-{4-[4-(2-Methoxyethyl)piperazine-1-sulfonyl]benzyl}-4-trifluoromethylchromen-2-one]"

# From patent publication US7057048B2, “Androgen receptor antagonists” (Warner Lambert Company LLC, priority 2003, dated 2006)
